Source: patent US20230092163A1, “COMPOUNDS AND COMPOSITIONS FOR TREATING CONDITIONS ASSOCIATED WITH STING ACTIVITY” (IFM Due, Inc., priority 2019, published 2023)
pEC50: −log10 of the molar value.

Molecular target: STING (Homo sapiens, UniProt Q86WV6, G230A/H232R/R293Q/R71H)
Experiment: STING reporter assay: THP1-Dual KO-IFNAR2 cells stimulated with 2′3′cGAMP, luciferase reporter activity
Format: cell-based
Conditions: 15 μM 2′3′cGAMP, 24h
Method in brief: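 THP1-Dual KO-IFNAR2 cells (2×10E6 cells/mL) treated with compounds at 0.0017-100 μM, then stimulated with 2′3′cGAMP (15 μM final) delivered by Lipofectamine 2000; 24 h at 37° C. Supernatant luciferase read by QUANTI-Luc Plus luminescence; EC50 from dose-response.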

STING, sequence (Q86WV6 whole entry R71H/G230A/H232R/R293Q): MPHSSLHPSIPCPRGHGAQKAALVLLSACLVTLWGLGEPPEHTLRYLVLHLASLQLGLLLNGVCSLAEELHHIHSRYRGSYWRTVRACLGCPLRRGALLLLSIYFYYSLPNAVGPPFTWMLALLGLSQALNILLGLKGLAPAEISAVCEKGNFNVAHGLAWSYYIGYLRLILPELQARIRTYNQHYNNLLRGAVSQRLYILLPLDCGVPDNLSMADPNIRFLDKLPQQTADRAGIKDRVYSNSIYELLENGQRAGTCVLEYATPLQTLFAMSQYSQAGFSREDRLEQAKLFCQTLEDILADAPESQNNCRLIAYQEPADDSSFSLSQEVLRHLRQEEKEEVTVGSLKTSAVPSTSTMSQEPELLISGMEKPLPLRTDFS

Structure (SMILES): CCS(=O)(=O)c1ccc(CNC(=O)Nc2ccc3cc[nH]c3c2)cn1 [Compound 179]
- pEC50 (numeric bounds): < 4.52

Structure (SMILES): CCc1ccccc1NC(=O)Nc1ccc2cc[nH]c2c1 [Compound 229]
- pEC50 (numeric bounds): < 4.52

Structure (SMILES): Cc1c(NC(=O)Nc2ccc(C(F)(F)F)cc2)ccc2cc[nH]c12 [Compound 259]
- pEC50 (numeric bounds): < 4.52

Structure (SMILES): CC(C)(C)OC(=O)N1CCc2nc(Nc3ccc4cc[nH]c4c3)ncc2C1 [Compound 419, tert-butyl 2-((1H-indol-6-yl)amino)-7,8-dihydropyrido[4,3-d]pyrimidine-6(5H)-carboxylate]
- pEC50 (numeric bounds): < 4.52

Structure (SMILES): CCCCCCCCCCCCCCNC(=O)Nc1ccc2[nH]ccc2c1 [Compound 351]
- pEC50 (numeric bounds): < 4.52

Structure (SMILES): O=C(Nc1cccc(S(=O)(=O)N2CCCC2)c1)Nc1ccc2[nH]ccc2c1 [Compound 282]
- pEC50 (numeric bounds): < 4.52

Structure (SMILES): N#Cc1ccc(NC(=O)Nc2ccc3[nH]ccc3c2)cc1 [Compound 361]
- pEC50 (numeric bounds): < 4.52

Structure (SMILES): O=S(=O)(c1ccc(Nc2ccc3cc[nH]c3c2)nc1)N1CCCC1 [Compound 423, N-(5-(pyrrolidin-1-ylsulfonyl)pyridin-2-yl)-1H-indol-6-amine]
- pEC50 (numeric bounds): < 4.52

Structure (SMILES): O=C(NCCc1ncc(C(F)(F)F)cc1Cl)Nc1ccc2[nH]ccc2c1 [Compound 290]
- pEC50 (numeric bounds): < 4.52

Structure (SMILES): Cn1cc(NC(=O)Nc2ccc3[nH]ccc3c2)cn1 [Compound 306]
- pEC50 (numeric bounds): < 4.52

Structure (SMILES): O=C(Nc1cccc(C(F)(F)F)c1)Nc1cc(CCO)c2cc[nH]c2c1 [Compound 509, 1-(4-(2-hydroxyethyl)-1H-indol-6-yl)-3-(3-(trifluoromethyl)phenyl)urea]
- pEC50 (class symbols): 5.30 to 6.00

Structure (SMILES): O=C(Nc1ccc(C(F)(F)F)cc1)Nc1ccc2cc[nH]c2c1 [Compound 101]
- pEC50 (class symbols): 6.70 to 7.40

Structure (SMILES): O=C(Nc1cc(F)c(N2CCC(F)(F)CC2)c(F)c1)Nc1ccc2[nH]ccc2c1 [Compound 293]
- pEC50 (numeric bounds): < 4.52

Structure (SMILES): O=S(=O)(c1ccc(Nc2ccc3cc[nH]c3c2)nc1)N1CCCCC1 [Compound 422, N-(5-(piperidin-1-ylsulfonyl)pyridin-2-yl)-1H-indol-6-amine]
- pEC50 (class symbols): 4.00 to 5.30

Structure (SMILES): c1cc2ccc(Nc3ccc4ccc(C5CCCCC5)cc4n3)cc2[nH]1 [Compound 389, 7-cyclohexyl-N-(1H-indol-6-yl)quinolin-2-amine]
- pEC50 (class symbols): 5.30 to 6.00

Structure (SMILES): CCNc1cccc(Nc2ccc3cc[nH]c3c2)n1 [Compound 398, N2-ethyl-N6-(1H-indol-6-yl)pyridine-2,6-diamine]
- pEC50 (numeric bounds): < 4.52

Structure (SMILES): CNC(=O)OCCc1cc(NC(=O)Nc2ccc(C(F)(F)F)cc2)cc2[nH]ccc12 [Compound 512]
- pEC50 (class symbols): 5.30 to 6.00

Structure (SMILES): Cc1cc(NC(=O)Nc2ccc3c(F)c[nH]c3c2)cnc1N1CCC(F)(F)CC1 [Compound 499]
- pEC50 (numeric bounds): < 5.95

Structure (SMILES): CCCCC1CCC(NC(=O)Nc2ccc3[nH]c(C)cc3c2)CC1 (stereo not shown) [Compound 375]
- pEC50 (numeric bounds): < 4.00

Structure (SMILES): O=C(Nc1ccc2[nH]ccc2c1)N[C@@H]1C[C@H]1c1ccccc1 [Compound 326]
- pEC50 (numeric bounds): < 4.52

Structure (SMILES): O=C(Nc1cc(F)cc(C(F)(F)F)c1)Nc1cc(Cl)c2cc[nH]c2c1 [Compound 153]
- pEC50 (class symbols): 6.00 to 6.70

Structure (SMILES): FC(F)(F)c1ccc2c(Cl)cc(Nc3ccc4cc[nH]c4c3)nc2c1 [Compound 562, 4-chloro-N-(1H-indol-6-yl)-7-(trifluoromethyl)quinolin-2-amine]
- pEC50 (class symbols): 4.00 to 5.30

Structure (SMILES): Cc1cc(Nc2ccc3ccc(Cl)cc3n2)cc2[nH]ccc12 [Compound 387]
- pEC50 (class symbols): 5.30 to 6.00

Structure (SMILES): CCCCCCCCc1ccc(NC(=O)Nc2ccc3[nH]ccc3c2)cc1 [Compound 352]
- pEC50 (numeric bounds): < 4.52

Structure (SMILES): O=C(NCCc1ccccc1Cl)Nc1ccc2[nH]ccc2c1 [Compound 355]
- pEC50 (numeric bounds): < 4.52

Structure (SMILES): O=C(NCCSCc1c(Cl)cccc1Cl)Nc1ccc2[nH]ccc2c1 [Compound 349]
- pEC50 (numeric bounds): < 4.52

Structure (SMILES): Cc1cc(NC(=O)Nc2ccc(C(F)(F)F)cc2)cc2[nH]cc(C#N)c12 [Compound 533]
- pEC50 (class symbols): 5.30 to 6.00

Structure (SMILES): O=C(Nc1ccc(C(F)(F)F)cc1)Nc1cc2[nH]ccc2cc1F [Compound 262]
- pEC50 (class symbols): 4.00 to 5.30

Structure (SMILES): O=C(Nc1ccc2[nH]ccc2c1)Nc1cc2cccc(C(F)(F)F)n2n1 [Compound 309]
- pEC50 (class symbols): 4.00 to 5.30

Structure (SMILES): FC(F)(F)COc1ccnc(Nc2ccc3cc[nH]c3c2)n1 [Compound 410, N-(4-(2,2,2-trifluoroethoxy)pyrimidin-2-yl)-1H-indol-6-amine]
- pEC50 (numeric bounds): < 4.52

Structure (SMILES): FC(F)(F)c1ccc2ccc(Nc3ccc4cc[nH]c4c3)cc2n1 [Compound 579]
- pEC50 (class symbols): 5.30 to 6.00

Structure (SMILES): O=C(NCCc1c[nH]c2cc(OC(F)(F)F)ccc12)Nc1ccc2[nH]ccc2c1 [Compound 314]
- pEC50 (numeric bounds): < 4.52

Structure (SMILES): O=C(Nc1ccc(C2CC(F)(F)C2)c(F)c1)Nc1cc(Cl)c2cc[nH]c2c1 [Compound 548]
- pEC50 (class symbols): 6.70 to 7.40

Structure (SMILES): Fc1cc(C(F)(F)F)cc2nc(Nc3ccc4cc[nH]c4c3)ccc12 [Compound 554]
- pEC50 (class symbols): 5.30 to 6.00

Structure (SMILES): O=C(Nc1ccc(C(F)(F)F)cc1)Nc1cc(F)c2cc[nH]c2c1 [Compound 246]
- pEC50 (class symbols): 6.00 to 6.70

Structure (SMILES): N#Cc1cc(F)cc(NC(=O)Nc2ccc3[nH]ccc3c2)c1 [Compound 307]
- pEC50 (numeric bounds): < 4.52

Structure (SMILES): N#Cc1c[nH]c2cc(NC(=O)Nc3ccc(C(F)(F)F)cc3)ccc12 [Compound 258, 3-(3-cyano-1H-indol-6-yl)-1-[4-(trifluoromethyl)phenyl]urea]
- pEC50 (class symbols): 6.00 to 6.70

Structure (SMILES): CCCCC1CCC(NC(=O)Nc2ccc3cc(C)[nH]c3c2)CC1 (stereo not shown) [Compound 266]
- pEC50 (numeric bounds): < 4.00

Structure (SMILES): O=C(NCC1CCC1)Nc1ccc2[nH]ccc2c1 [Compound 331]
- pEC50 (numeric bounds): < 4.52

Structure (SMILES): O=C(NCc1ccc(C(F)(F)F)c(Cl)c1)Nc1ccc2cc[nH]c2c1 [Compound 206]
- pEC50 (class symbols): 5.30 to 6.00

Structure (SMILES): O=c1c(Nc2ccc(C(F)(F)F)cc2)c(Nc2ccc3cc[nH]c3c2)c1=O [Compound 620]
- pEC50 (class symbols): 5.30 to 6.00

Structure (SMILES): CC(C)c1ccc(NC(=O)Nc2ccc3[nH]ccc3c2)cc1 [Compound 347]
- pEC50 (numeric bounds): < 4.52

Structure (SMILES): CCCCc1ccc(Nc2c(Nc3ccc4cc[nH]c4c3)c(=O)c2=O)cc1 [Compound 113]
- pEC50 (numeric bounds): < 4.83

Structure (SMILES): Cc1ccc(CNC(=O)Nc2ccc3[nH]ccc3c2)cc1C [Compound 337]
- pEC50 (numeric bounds): < 4.52

Structure (SMILES): CC(CNC(=O)Nc1ccc2cc[nH]c2c1)c1ccccc1 (stereo not shown) [Compound 213]
- pEC50 (numeric bounds): < 4.52

Structure (SMILES): N#Cc1cc(F)cc(NC(=O)Nc2ccc3cc[nH]c3c2)c1 [Compound 193]
- pEC50 (numeric bounds): < 4.52

Structure (SMILES): COc1cc(NC(=O)Nc2ccc(C(F)(F)F)cc2)cc2[nH]ccc12 [Compound 504]
- pEC50 (class symbols): 6.00 to 6.70

Structure (SMILES): FC(F)(F)Cc1ccc(Nc2ccc3cc[nH]c3c2)nc1 [Compound 408, N-(5-(2,2,2-trifluoroethyl)pyridin-2-yl)-1H-indol-6-amine]
- pEC50 (class symbols): 4.00 to 5.30

Structure (SMILES): Cc1nc(Nc2ccc3cc[nH]c3c2)ccc1C#N [Compound 598, 6-((1H-indol-6-yl)amino)-2-methylnicotinonitrile]
- pEC50 (numeric bounds): < 4.52

Structure (SMILES): O=C(Nc1ccc2cc[nH]c2c1)NC1CCc2ccc(C(F)(F)F)cc21 (stereo not shown) [Compound 181]
- pEC50 (class symbols): 5.30 to 6.00

Structure (SMILES): c1cnc2nc(Nc3ccc4cc[nH]c4c3)ccc2c1 [Compound 573, N-(1H-indol-6-yl)-1,8-naphthyridin-2-amine]
- pEC50 (class symbols): 4.00 to 5.30

Structure (SMILES): FC(F)(F)c1ccc2cnc(Nc3ccc4cc[nH]c4c3)cc2c1 [Compound 388]
- pEC50 (class symbols): 5.30 to 6.00

Structure (SMILES): CCCCc1ccc(NC(=O)Nc2ccc3cc[nH]c3c2)cc1 [Compound 273]
- pEC50 (class symbols): 6.00 to 6.70

Structure (SMILES): c1cc2ccc(Nc3ccc4c(cnn4C4CCCCO4)n3)cc2[nH]1 (stereo not shown) [Compound 600, N-[1-(oxan-2-yl)-1H-pyrazolo[4,3-b]pyridin-5-yl]-1H-indol-6-amine]
- pEC50 (numeric bounds): < 4.52

Structure (SMILES): CC(=O)c1ccc2ccc(Nc3ccc4cc[nH]c4c3)nc2c1 [Compound 575, 1-{2-[(1H-indol-6-yl)amino]quinolin-7-yl}ethan-1-one]
- pEC50 (numeric bounds): < 4.52

Structure (SMILES): CNS(=O)(=O)c1c[nH]c2cc(NC(=O)Nc3ccc(C(F)(F)F)cc3)ccc12 [Compound 508]
- pEC50 (class symbols): 4.00 to 5.30

Structure (SMILES): O=C(NCc1cc(Cl)cc(C(F)(F)F)c1)Nc1ccc2c(F)c[nH]c2c1 [Compound 538]
- pEC50 (class symbols): 4.00 to 5.30

Structure (SMILES): c1cc2ccc(Nc3ccc4ccc(C5CCC5)cc4n3)cc2[nH]1 [Compound 386]
- pEC50 (class symbols): 5.30 to 6.00

Structure (SMILES): O=C(NCc1ccc(OCC(F)(F)F)nc1)Nc1ccc2cc[nH]c2c1 [Compound 176]
- pEC50 (class symbols): 5.30 to 6.00

Structure (SMILES): O=C(Nc1ccc2[nH]ccc2c1)NC1CCc2ccc(C(F)(F)F)cc21 (stereo not shown) [Compound 317]
- pEC50 (numeric bounds): < 4.52

Structure (SMILES): O=C(Nc1ccc(C(F)(F)F)c(Cl)c1)Nc1ccc2cc[nH]c2c1 [Compound 244]
- pEC50 (class symbols): 6.00 to 6.70

Structure (SMILES): O=C(Nc1ccc(C2CC(F)(F)C2)c(F)c1)Nc1ccc2cc[nH]c2c1 [Compound 240]
- pEC50 (class symbols): 6.00 to 6.70

Structure (SMILES): CC(=O)n1cc(C#N)c2ccc(NC(=O)Nc3ccc(C(F)(F)F)cc3)cc21 [Compound 529]
- pEC50 (class symbols): 5.30 to 6.00

Structure (SMILES): c1ccc(-c2ccc(Nc3ccc4cc[nH]c4c3)nc2)cc1 [Compound 424, N-(5-phenylpyridin-2-yl)-1H-indol-6-amine]
- pEC50 (class symbols): 5.30 to 6.00
